# Earlier results as cited in US20100323983A1, “PHARMACEUTICAL OR COSMETIC PREPARATIONS FOR TOPICAL AND/OR PARENTERAL APPLICATION, PREPARATION METHODS THEREOF, AND USES THEREOF” (priority 2007, published 2010).
# Settings: humans
substance,measurement,value
hyaluronic acid,excretion in the urine,less than 1 % of total clearance
